Source: publication PMC6522981, “Structure-based design generated novel hydroxamic acid based preferential HDAC6 lead inhibitor with on-target cytotoxic activity against primary choroid plexus carcinoma” (Journal of Enzyme Inhibition and Medicinal Chemistry, 2019)
Read-outs that look alike come from different tables or passages of the source.

Assays:
[1] = tested on: acetylated α-tubulin in HL60 cells; assay: Western blot analysis of acetylated α-tubulin in HL60 cells; format: cell-based; conditions: 24 h
Procedure: CCHE-45 cells were treated with 100 µM of test compound for 24 h. HL60 cell line (a kind gift from Professor Azza Kamel from the National Cancer Institute, Cairo University); and is cultured in RPMI-1640 (Lonza, BE-12-702F) supplemented with 10% Fetal Bovine Serum (FBS, Gibco, 12483–020) and 100 U/ml penicillin and 100 µg/ml streptomycin (Lonza, DE17-602F), has also been treated with different concentrations of 10a in twofold serial dilutions for 24 h. Proteins were extracted from CCHE-45 cells using RIPA Lysis and Extraction Buffer (ThermoScientific, cat. No: 89901) containing 100x Halt Protease and […] Inhibitor Cocktail (ThermoScientific, cat. No. 78444). Followed by protein quantification using Bradford Reagent (Pierce Coomassie Plus (Bradford) Assay Reagent) (ThermoScientific, cat. No. 23238). A total of 50 µg proteins were loaded on a 10% SDS page using 30% Acrylamide/Bisacrylamide 19:1(Serva, cat. No. 10679.01) then transferred by semidry transfer method using Bio-Rad Trans-Blot Turbo transfer system on PVDF Transfer Membrane (ThermoScientific, cat. No. 88518). The membranes were incubated overnight at 4 °C in the primary antibodies Mouse monoclonal Anti-Beta Actin antibody (1:100, abcam, ab8224) and Mouse monoclonal Anti-acetylated α Tubulin (1:200, Santa Cruz Biotechnology, sc-23950). […]

human HDAC6 = target: T1, human HDAC6 (Homo sapiens, UniProt Q9UBN7); assay: IC50 of the test inhibitor against HDAC6 (10-dose enzymatic assay); format: biochemical; parameters: purchased BPS Bioscience 50006; conditions: for activity at 0.0003 µM: 0.0003 µM compound; for activity at 0.001 µM: 0.001 µM compound; for activity at 0.003 µM: 0.003 µM compound; for activity at 0.01 µM: 0.01 µM compound; for activity at 0.03 µM: 0.03 µM compound; for activity at 0.1 µM: 0.1 µM compound; for activity at 0.3 µM: 0.3 µM compound; for activity at 1 µM: 1 µM compound; for activity at 3 µM: 3 µM compound; for activity at 10 µM: 10 µM compound
T1 sequence (Q9UBN7 1-1215): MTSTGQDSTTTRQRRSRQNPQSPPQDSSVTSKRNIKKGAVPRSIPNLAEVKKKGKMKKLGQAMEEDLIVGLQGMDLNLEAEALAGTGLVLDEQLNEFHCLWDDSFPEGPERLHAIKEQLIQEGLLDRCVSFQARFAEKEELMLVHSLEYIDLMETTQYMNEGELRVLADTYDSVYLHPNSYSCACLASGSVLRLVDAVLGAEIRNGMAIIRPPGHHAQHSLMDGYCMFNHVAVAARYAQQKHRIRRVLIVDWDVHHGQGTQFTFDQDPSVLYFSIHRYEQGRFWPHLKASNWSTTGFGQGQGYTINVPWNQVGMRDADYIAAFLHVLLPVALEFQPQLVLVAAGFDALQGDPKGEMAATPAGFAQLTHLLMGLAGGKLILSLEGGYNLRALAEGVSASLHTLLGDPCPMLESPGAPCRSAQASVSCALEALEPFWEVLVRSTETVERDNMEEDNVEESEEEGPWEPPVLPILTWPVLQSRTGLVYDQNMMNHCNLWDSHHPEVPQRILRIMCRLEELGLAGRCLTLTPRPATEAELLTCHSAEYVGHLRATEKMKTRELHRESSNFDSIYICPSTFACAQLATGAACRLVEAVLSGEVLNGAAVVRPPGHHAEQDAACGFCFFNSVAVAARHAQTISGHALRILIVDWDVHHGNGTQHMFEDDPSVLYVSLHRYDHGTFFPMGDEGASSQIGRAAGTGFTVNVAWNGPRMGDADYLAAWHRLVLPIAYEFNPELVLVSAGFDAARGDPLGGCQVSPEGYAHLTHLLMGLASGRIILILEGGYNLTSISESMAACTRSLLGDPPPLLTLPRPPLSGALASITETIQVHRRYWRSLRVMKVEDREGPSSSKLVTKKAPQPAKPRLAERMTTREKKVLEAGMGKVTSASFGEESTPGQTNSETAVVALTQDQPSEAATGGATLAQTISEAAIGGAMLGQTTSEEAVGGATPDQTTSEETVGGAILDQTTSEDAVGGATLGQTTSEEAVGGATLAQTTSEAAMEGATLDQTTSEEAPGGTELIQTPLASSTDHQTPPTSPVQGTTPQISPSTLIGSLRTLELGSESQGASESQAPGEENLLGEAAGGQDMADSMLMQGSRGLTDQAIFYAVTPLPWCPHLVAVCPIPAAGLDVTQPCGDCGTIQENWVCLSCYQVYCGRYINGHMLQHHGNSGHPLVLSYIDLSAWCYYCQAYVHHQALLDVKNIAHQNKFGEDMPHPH

human HDAC4 = human HDAC4 (Homo sapiens, UniProt P56524); assay: HDAC4 inhibitor enzymatic assay, % inhibition at fixed concentration; conditions: read-out: %inhibition of HDACs at 10µM of test compound HDAC4
human HDAC9 = human HDAC9 (Homo sapiens, UniProt Q9UKV0); assay: HDAC9 inhibitor enzymatic assay, % inhibition at fixed concentration; conditions: read-out: %inhibition of HDACs at 10µM of test compound HDAC9
human HDAC11 = target: T2, human HDAC11 (Homo sapiens, UniProt Q96DB2); assay: HDAC11 inhibitor enzymatic assay, % inhibition at fixed concentration; conditions: read-out: %inhibition of HDACs at 10µM of test compound HDAC11
T2 sequence (Q96DB2 1-347): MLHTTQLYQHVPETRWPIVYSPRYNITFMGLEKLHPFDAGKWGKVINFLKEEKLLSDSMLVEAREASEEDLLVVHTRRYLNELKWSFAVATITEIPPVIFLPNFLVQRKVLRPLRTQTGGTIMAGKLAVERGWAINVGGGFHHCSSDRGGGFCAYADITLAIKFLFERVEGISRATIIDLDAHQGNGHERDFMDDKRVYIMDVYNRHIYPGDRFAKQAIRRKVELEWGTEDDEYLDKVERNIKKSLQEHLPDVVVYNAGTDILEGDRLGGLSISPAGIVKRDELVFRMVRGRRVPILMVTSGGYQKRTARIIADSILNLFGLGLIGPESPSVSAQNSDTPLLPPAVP

[2] = Repeat1, read-out: HDAC6 % Activity Repeat1
[3] = Repeat2, read-out: HDAC6 % Activity Repeat2

human HDAC9, sequence (Q9UKV0 1-1066 isoform Q9UKV0-5): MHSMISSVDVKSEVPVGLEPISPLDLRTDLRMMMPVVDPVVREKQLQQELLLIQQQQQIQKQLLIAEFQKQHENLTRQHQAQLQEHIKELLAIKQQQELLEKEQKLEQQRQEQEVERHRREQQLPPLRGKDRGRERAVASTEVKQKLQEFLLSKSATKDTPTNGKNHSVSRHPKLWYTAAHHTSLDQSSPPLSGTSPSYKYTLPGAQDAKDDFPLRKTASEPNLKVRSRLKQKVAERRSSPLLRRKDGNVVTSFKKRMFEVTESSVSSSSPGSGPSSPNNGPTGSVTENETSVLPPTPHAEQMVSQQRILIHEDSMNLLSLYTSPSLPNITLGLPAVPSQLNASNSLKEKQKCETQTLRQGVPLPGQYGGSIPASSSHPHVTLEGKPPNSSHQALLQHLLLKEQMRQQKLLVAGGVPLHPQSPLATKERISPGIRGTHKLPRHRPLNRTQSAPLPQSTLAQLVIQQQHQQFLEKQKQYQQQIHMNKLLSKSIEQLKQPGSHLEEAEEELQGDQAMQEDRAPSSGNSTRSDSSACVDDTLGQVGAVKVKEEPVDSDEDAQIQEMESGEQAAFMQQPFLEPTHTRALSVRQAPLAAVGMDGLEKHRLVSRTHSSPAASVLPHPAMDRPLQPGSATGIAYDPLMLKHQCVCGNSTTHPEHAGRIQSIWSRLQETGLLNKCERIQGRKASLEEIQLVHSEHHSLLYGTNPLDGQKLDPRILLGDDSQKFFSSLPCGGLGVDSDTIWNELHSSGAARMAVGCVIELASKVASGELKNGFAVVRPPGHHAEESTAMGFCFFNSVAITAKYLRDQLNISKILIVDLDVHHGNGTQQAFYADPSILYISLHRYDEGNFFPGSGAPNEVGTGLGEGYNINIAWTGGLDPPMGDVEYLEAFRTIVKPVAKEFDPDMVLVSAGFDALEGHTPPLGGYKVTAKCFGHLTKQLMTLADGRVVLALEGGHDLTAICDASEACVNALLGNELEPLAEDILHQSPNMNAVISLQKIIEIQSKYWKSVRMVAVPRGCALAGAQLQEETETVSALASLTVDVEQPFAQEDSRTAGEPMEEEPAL
human HDAC4, sequence (P56524 627-1084 limits assumed): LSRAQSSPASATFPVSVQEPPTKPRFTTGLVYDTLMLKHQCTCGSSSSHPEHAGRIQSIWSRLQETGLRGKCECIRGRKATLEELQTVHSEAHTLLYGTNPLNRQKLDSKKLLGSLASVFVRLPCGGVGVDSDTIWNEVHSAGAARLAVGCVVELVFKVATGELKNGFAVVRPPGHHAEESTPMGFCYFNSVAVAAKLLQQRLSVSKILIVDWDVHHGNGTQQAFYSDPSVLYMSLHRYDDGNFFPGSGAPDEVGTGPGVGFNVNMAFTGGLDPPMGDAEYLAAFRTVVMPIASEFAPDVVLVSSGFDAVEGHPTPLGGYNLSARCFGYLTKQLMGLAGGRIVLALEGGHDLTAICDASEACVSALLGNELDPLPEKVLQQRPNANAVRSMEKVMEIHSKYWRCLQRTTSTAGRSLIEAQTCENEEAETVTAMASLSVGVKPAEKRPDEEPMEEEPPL

For `O=C(CCCSc1nc2ccccc2n1Cc1ccccc1)NO` [Compound 10a, 4-((1-benzyl-1H-benzo[d]imidazol-2-yl)thio)-N-hydroxybutanamide], the “concentration with significant upregulation of acetylated α-tubulin” value ([1]; 6.25-100 µM tested) was 25 µM, the “concentration from which acetylated α-tubulin is upregulated” value ([1]; Figure 6 legend) was no less than 12.5 µM and the activity at 0.0003 µM (human HDAC6; [2]) was 100%. The activity at 0.0003 µM (human HDAC6; [3]) was 99%, the activity at 0.001 µM (human HDAC6; [2]) was 98% and the activity at 0.001 µM (human HDAC6; [3]) was 100%. The activity at 0.003 µM (human HDAC6; [2]) was 100%, the activity at 0.003 µM (human HDAC6; [3]) was 95% and the activity at 0.01 µM (human HDAC6; [2]) was 95%. It also gave an activity at 0.01 µM (human HDAC6; [3]) of 100%, an activity at 0.03 µM (human HDAC6; [2]) of 93% and an activity at 0.03 µM (human HDAC6; [3]) of 94%. It also gave an activity at 0.1 µM (human HDAC6; [2]) of 86%, an activity at 0.1 µM (human HDAC6; [3]) of 82% and an activity at 0.3 µM (human HDAC6; [2]) of 61%. It also gave an activity at 0.3 µM (human HDAC6; [3]) of 63%, an activity at 1 µM (human HDAC6; [2]) of 33% and an activity at 1 µM (human HDAC6; [3]) of 33%. The activity at 3 µM (human HDAC6; [2]) was 13%, the activity at 3 µM (human HDAC6; [3]) was 14% and the activity at 10 µM (human HDAC6; [2]) was 5%. The activity at 10 µM (human HDAC6; [3]) was 5%, the inhibition at 10 µM (human HDAC4) was 1% and the inhibition at 10 µM (human HDAC9) was 5%. For the same compound, the inhibition at 10 µM (human HDAC11) was 6%.
